Measurements taken from the CheMixHub ionic liquid set.
Where “and” joins values, the source holds several entries; their conditions need not be identical. Equal entries are not always repeated. ± gives the uncertainty stated by the source.

Assay: xn = mol fraction of the nth substance listed

CCCCCCCCCCCC[N+](CC)(CC)CC.O=S(=O)([N-]S(=O)(=O)C(F)(F)F)C(F)(F)F + O
101 kPa, x2 = 0.1247
Details | viscosity [mPa·s]
293.25 K | 157.4 ± 3.9
298.05 K | 130.7 ± 3.1

CCCCCCCCCCCC[N+]1(C)CCCCC1.O=C([O-])c1ccccc1O + O
electrical conductivity [S/m], 100 kPa
Details | x1 = 3.55e-06 | x1 = 8.89e-06 | x1 = 2.712e-05
298.15 K | 0.00167 ± 0.00087 | – | 0.0079 ± 0.0027
328.15 K | – | 0.0063 ± 0.0046 | –

CCCCCCCC[n+]1ccccc1.F[B-](F)(F)F + O
101.3 kPa
Details | viscosity [mPa·s]
288.15 K, x2 = 0 | 447 ± 34
288.15 K, x2 = 0.1 | 289 ± 17
288.15 K, x2 = 0.184 | 192.6 ± 9
288.15 K, x2 = 0.324 | 121.3 ± 3.9
288.15 K, x2 = 0.477 | 89 ± 2
288.15 K, x2 = 0.67 | 50.65 ± 0.78
288.15 K, x2 = 0.758 | 37.8 ± 0.8
293.15 K, x2 = 0.1 | 213 ± 11
293.15 K, x2 = 0.184 | 145.6 ± 5.5
293.15 K, x2 = 0.324 | 94.1 ± 2.2
298.15 K, x2 = 0.67 | 32.69 ± 0.7
298.15 K, x2 = 0.758 | 23.24 ± 0.65
308.15 K, x2 = 0 | 134.8 ± 4.7
308.15 K, x2 = 0.783 | 15.11 ± 0.62
313.15 K, x2 = 0.562 | 19.43 ± 0.63
313.15 K, x2 = 0.67 | 18.67 ± 0.63
318.15 K, x2 = 0 | 81.6 ± 1.6
318.15 K, x2 = 0.324 | 32.19 ± 0.68
323.15 K, x2 = 0.324 | 27.26 ± 0.66
328.15 K, x2 = 0.1 | 38.44 ± 0.72
328.15 K, x2 = 0.184 | 30.98 ± 0.67
328.15 K, x2 = 0.758 | 8.61 ± 0.6
333.15 K, x2 = 0 | 45.28 ± 0.75
333.15 K, x2 = 0.1 | 32.1 ± 0.68
333.15 K, x2 = 0.184 | 26.18 ± 0.65
333.15 K, x2 = 0.758 | 7.63 ± 0.6
338.15 K, x2 = 0.67 | 9.23 ± 0.61
343.15 K, x2 = 0.324 | 15.05 ± 0.62
343.15 K, x2 = 0.67 | 7.99 ± 0.6
348.15 K, x2 = 0 | 27.77 ± 0.65
348.15 K, x2 = 0.477 | 10.05 ± 0.61

CC[NH3+].O=[N+]([O-])[O-] + O
Details | viscosity
288.15 K, 101.33 kPa, x2 = 0.574 | 5.43 ± 0.12 mPa·s and 7.928 ± 0.084 mPa·s
293.15 K, 100 kPa, x2 = 0.1088 | 20.97 ± 0.47 mPa·s
293.15 K, 100 kPa, x2 = 0.3682 | 7.63 ± 0.17 mPa·s
293.15 K, 100 kPa, x2 = 0.47 | 6.34 ± 0.14 mPa·s
293.15 K, 100 kPa, x2 = 0.579 | 5.03 ± 0.12 mPa·s
293.15 K, 101.33 kPa, x2 = 0.574 | 4.86 ± 0.1 mPa·s and 7.175 ± 0.075 mPa·s
298 K, 101 kPa, x2 = 0.7 | 3.42 ± 0.08 mPa·s
298 K, 101 kPa, x2 = 0.95 | 1.15 ± 0.03 mPa·s
298.15 K, 100 kPa, x2 = 0.7889 | 2.16 ± 0.06 mPa·s
298.15 K, 100 kPa, x2 = 0.8895 | 1.48 ± 0.05 mPa·s
298.15 K, 101.33 kPa, x2 = 0.574 | 4.415 ± 0.095 mPa·s and 6.559 ± 0.068 mPa·s
303.15 K, 100 kPa, x2 = 0.1088 | 15.74 ± 0.36 mPa·s
303.15 K, 100 kPa, x2 = 0.2597 | 7.78 ± 0.18 mPa·s
303.15 K, 100 kPa, x2 = 0.7889 | 1.95 ± 0.06 mPa·s
303.15 K, 100 kPa, x2 = 0.8895 | 1.34 ± 0.05 mPa·s
303.15 K, 101.33 kPa, x2 = 0.574 | 3.953 ± 0.085 mPa·s and 5.989 ± 0.062 mPa·s
308.15 K, 100 kPa, x2 = 0.1088 | 13.76 ± 0.31 mPa·s
308.15 K, 100 kPa, x2 = 0.47 | 4.52 ± 0.11 mPa·s
308.15 K, 101.33 kPa, x2 = 0.574 | 3.571 ± 0.077 mPa·s and 5.567 ± 0.056 mPa·s
313.15 K, 100 kPa, x2 = 0 | 22.67 ± 0.51 mPa·s
313.15 K, 100 kPa, x2 = 0.579 | 3.26 ± 0.08 mPa·s
313.15 K, 101.33 kPa, x2 = 0.574 | 3.247 ± 0.07 mPa·s and 5.268 ± 0.054 mPa·s
318.15 K, 100 kPa, x2 = 0.47 | 3.71 ± 0.09 mPa·s
318.15 K, 100 kPa, x2 = 0.7889 | 1.49 ± 0.05 mPa·s
318.15 K, 101.33 kPa, x2 = 0.574 | 2.96 ± 0.064 mPa·s and 4.826 ± 0.05 mPa·s
323.15 K, 101.33 kPa, x2 = 0.574 | 2.709 ± 0.058 mPa·s and 4.535 ± 0.047 mPa·s
328.15 K, 101.33 kPa, x2 = 0.574 | 2.479 ± 0.054 mPa·s and 4.213 ± 0.043 mPa·s
333.15 K, 101.33 kPa, x2 = 0.574 | 2.281 ± 0.049 mPa·s and 4.065 ± 0.041 mPa·s
338.15 K, 101.33 kPa, x2 = 0.574 | 2.102 ± 0.046 mPa·s and 3.912 ± 0.04 mPa·s
343.15 K, 101.33 kPa, x2 = 0.574 | 1.945 ± 0.042 mPa·s

C[N+](C)(C)CCO.O=C([O-])CO + O
Details | viscosity [mPa·s]
293.15 K, 101 kPa, x2 = 0.366 | 660 ± 260
